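48-hour exposure; five concentrations; linearly interpolated endpoints. Definition used: TGI = concentration required for complete inhibition of growth.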

The first test has as its system NCI-H460 lung. The test can be described thus: inhibition of tumour cell growth, NCI panel, 48 h.
Take `c1ccc2c(c1)NC(C1OC3CCCN3C1C1Nc3ccccc3S1)S2` (stereo not given): the TGI was greater than 100 µM.

With `O=P(c1ccccc1)(c1ccccc1)N1O[C@@H](c2ccccc2)C=C[C@H]1c1ccccc1`, the TGI was found to be 20.1 µM.

The molecule `COc1nc(C#CCC(C)O)nc(OC)n1` (stereo not given) displayed a TGI greater than 100 µM.

`COC(=O)[C@]12CC[C@H]3CN(C(=O)OCc4ccccc4)[C@H]([C@H]31)[C@H](c1ccco1)N2S(=O)(=O)c1ccc(C)cc1`: the TGI was found to be 87.8 µM.

`O=C1C[C@H](Sc2ccccc2)C2(OCCO2)[C@@H](Sc2ccccc2)C1` displayed a TGI greater than 44.5 µM.

Turning to `CCCNC(=O)CCC(C)[C@H]1CCC2C3C(C[C@H](OC(C)=O)[C@@]21C)[C@@]1(C)CCC2(C[C@H]1C[C@H]3OC(C)=O)OOC1(CCC(C)CC1)OO2` (stereo not given in full), the TGI came out at 71.2 µM.

Regarding `CCN(C(=S)N[C@@H](Cc1ccccc1)C(=O)N[C@@H](CC(C)C)C(=O)OC)c1ccccc1`, the TGI was greater than 100 µM.

Take `CCCn1c(CN(Cc2nc3ccccc3n2CCC)Cc2nc3ccccc3n2CCC)nc2ccccc21`: the TGI stood at 18.5 µM.

The molecule `CSc1c(C#N)c(N)n2c1C(=O)N(c1ccccc1)C2=S` came in with a TGI greater than 100 µM.

`NNC(=O)c1ccc[n+](CCc2ccccc2)c1` gave a TGI greater than 100 µM.

For the molecule `COc1cc(NS(C)(=O)=O)ccc1N1Cc2cnc3ccc4[nH]c(C)cc1c4c23`, the TGI is greater than 100 µM.

Take `CC12CC(=O)C3C(C(=O)C1)C32C` (stereo not given): the TGI is greater than 100 µM.

In turn, `O=C1CN2C(c3ccccc3)=NN(c3ccc([N+](=O)[O-])cc3)C2(c2ccccc2)c2cc(Cl)ccc2N1CC1CC1` (stereo not given) gave a TGI greater than 100 µM.

With `COc1ccc2cc3c4cc5c(cc4cc[n+]3cc2c1OC)OCO5`, the TGI is greater than 100 µM.

The molecule `CCN(CCO)CC1COc2ccccc2O1` (stereo not given) gave a TGI greater than 100 µM.

As to `C/C(CC1C2CCCC1C2)=N\NC(N)=O` (stereo not given), the TGI was greater than 100 µM.

Regarding `c1ccc2sc(SCSc3nc4ccccc4s3)nc2c1`, the TGI is greater than 100 µM.

Take `O=c1oc(-c2ccc(O)c(O)c2)cc2cccc(O)c12`: the TGI was greater than 68.2 µM.

For the molecule `O=C1/C(=C\c2cccc(Oc3ccccc3)c2)S(=O)(=O)C(c2ccccc2)N1Cc1ccccc1` (stereo not given), the TGI was 40.9 µM.

In turn, `O=[N+]([O-])/C(C(Cl)=C(Cl)Cl)=C(\Nc1cccc2cccnc12)SCc1ccccc1` came in with a TGI of 55.3 µM.

`COc1ccc(C#CC(=O)O)c(OC)c1`: the TGI was greater than 100 µM.

For `CCOC(=O)NC(=S)NN(C)C1=NCC(C)(C)S1`, the TGI was greater than 100 µM.

For the molecule `CC(O)C1CC1(CO)CNc1cc(Cl)nc(N)n1` (stereo not given), the TGI was greater than 100 µM.

The subject of the next test is EKVX NSCLC. Nature of the test: inhibition of tumour cell growth, NCI panel, 48 h.
`CS(=O)(=O)OCCn1c(=O)n(CCOS(C)(=O)=O)c(=O)n(CCOS(C)(=O)=O)c1=O` had a TGI greater than 100 µM.

Molecule `c1ccc2c(c1)NC(C1OC3CCCN3C1C1Nc3ccccc3S1)S2` (stereo not given) registered a TGI greater than 100 µM.

`O=P(c1ccccc1)(c1ccccc1)N1O[C@@H](c2ccccc2)C=C[C@H]1c1ccccc1` showed a TGI of 24.1 µM.

In turn, `COc1nc(C#CCC(C)O)nc(OC)n1` (stereo not given) registered a TGI of 39.3 µM.

In turn, `COC(=O)[C@]12CC[C@H]3CN(C(=O)OCc4ccccc4)[C@H]([C@H]31)[C@H](c1ccco1)N2S(=O)(=O)c1ccc(C)cc1` displayed a TGI greater than 100 µM.

For the molecule `O=C1C[C@H](Sc2ccccc2)C2(OCCO2)[C@@H](Sc2ccccc2)C1`, the TGI was found to be 17.1 µM.

The molecule `CCCNC(=O)CCC(C)[C@H]1CCC2C3C(C[C@H](OC(C)=O)[C@@]21C)[C@@]1(C)CCC2(C[C@H]1C[C@H]3OC(C)=O)OOC1(CCC(C)CC1)OO2` (stereo not given in full) displayed a TGI of 30.6 µM.

On to `CCN(C(=S)N[C@@H](Cc1ccccc1)C(=O)N[C@@H](CC(C)C)C(=O)OC)c1ccccc1`, for which the TGI is greater than 100 µM.

In turn, `CCCn1c(CN(Cc2nc3ccccc3n2CCC)Cc2nc3ccccc3n2CCC)nc2ccccc21` yielded a TGI of 40.4 µM.

`CSc1c(C#N)c(N)n2c1C(=O)N(c1ccccc1)C2=S` had a TGI greater than 100 µM.

Turning to `NNC(=O)c1ccc[n+](CCc2ccccc2)c1`, the TGI is greater than 100 µM.

In turn, `COc1cc(NS(C)(=O)=O)ccc1N1Cc2cnc3ccc4[nH]c(C)cc1c4c23` showed a TGI greater than 100 µM.

Regarding `CC12CC(=O)C3C(C(=O)C1)C32C` (stereo not given), the TGI was greater than 100 µM.

`O=C1CN2C(c3ccccc3)=NN(c3ccc([N+](=O)[O-])cc3)C2(c2ccccc2)c2cc(Cl)ccc2N1CC1CC1` (stereo not given) came in with a TGI greater than 100 µM.

With `COc1ccc2cc3c4cc5c(cc4cc[n+]3cc2c1OC)OCO5`, the TGI was greater than 100 µM.

In turn, `CCN(CCO)CC1COc2ccccc2O1` (stereo not given) showed a TGI greater than 100 µM.

The molecule `C/C(CC1C2CCCC1C2)=N\NC(N)=O` (stereo not given) came in with a TGI greater than 100 µM.

As for `c1ccc2sc(SCSc3nc4ccccc4s3)nc2c1`, the TGI is greater than 100 µM.

As to `O=c1oc(-c2ccc(O)c(O)c2)cc2cccc(O)c12`, the TGI was determined as 51.2 µM.

`O=C1/C(=C\c2cccc(Oc3ccccc3)c2)S(=O)(=O)C(c2ccccc2)N1Cc1ccccc1` (stereo not given): the TGI is 71.9 µM.

In turn, `O=[N+]([O-])/C(C(Cl)=C(Cl)Cl)=C(\Nc1cccc2cccnc12)SCc1ccccc1` had a TGI of 49.1 µM.

With `COc1ccc(C#CC(=O)O)c(OC)c1`, the TGI is greater than 100 µM.

The molecule `CCOC(=O)NC(=S)NN(C)C1=NCC(C)(C)S1` came in with a TGI greater than 100 µM.

In turn, `Cc1cc2[nH]c3[nH]c(=O)[nH]c(=O)c3c2cc1C` yielded a TGI greater than 100 µM.

The molecule `C/C=C/C=C/c1nc(C#N)c(N)o1` yielded a TGI greater than 100 µM.

`CC(C)COP(=O)(OCC(C)C)C(NS(=O)(=O)c1ccccc1)(C(F)(F)F)C(F)(F)F` had a TGI of 19 µM.

In the case of `CC(O)C1CC1(CO)CNc1cc(Cl)nc(N)n1` (stereo not given), the TGI was greater than 100 µM.

A further test concerns CAKI-1 renal. Nature of the test: inhibition of tumour cell growth, NCI panel, 48 h.
`CS(=O)(=O)OCCn1c(=O)n(CCOS(C)(=O)=O)c(=O)n(CCOS(C)(=O)=O)c1=O` had a TGI greater than 100 µM.

Consider `c1ccc2c(c1)NC(C1OC3CCCN3C1C1Nc3ccccc3S1)S2` (stereo not given), for which the TGI is greater than 100 µM.

The molecule `O=P(c1ccccc1)(c1ccccc1)N1O[C@@H](c2ccccc2)C=C[C@H]1c1ccccc1` returned a TGI of 22.4 µM.

In turn, `COc1nc(C#CCC(C)O)nc(OC)n1` (stereo not given) came in with a TGI of 31.9 µM.

The molecule `COC(=O)[C@]12CC[C@H]3CN(C(=O)OCc4ccccc4)[C@H]([C@H]31)[C@H](c1ccco1)N2S(=O)(=O)c1ccc(C)cc1` displayed a TGI of 89.4 µM.

In turn, `O=C1C[C@H](Sc2ccccc2)C2(OCCO2)[C@@H](Sc2ccccc2)C1` returned a TGI of 12.8 µM.

The molecule `CCCNC(=O)CCC(C)[C@H]1CCC2C3C(C[C@H](OC(C)=O)[C@@]21C)[C@@]1(C)CCC2(C[C@H]1C[C@H]3OC(C)=O)OOC1(CCC(C)CC1)OO2` (stereo not given in full) had a TGI of 5.14 µM.

In the case of `CCN(C(=S)N[C@@H](Cc1ccccc1)C(=O)N[C@@H](CC(C)C)C(=O)OC)c1ccccc1`, the TGI is greater than 100 µM.

Consider `CCCn1c(CN(Cc2nc3ccccc3n2CCC)Cc2nc3ccccc3n2CCC)nc2ccccc21`, for which the TGI was greater than 29 µM.

`CSc1c(C#N)c(N)n2c1C(=O)N(c1ccccc1)C2=S` came in with a TGI greater than 100 µM.

As for `NNC(=O)c1ccc[n+](CCc2ccccc2)c1`, the TGI was greater than 100 µM.

`COc1cc(NS(C)(=O)=O)ccc1N1Cc2cnc3ccc4[nH]c(C)cc1c4c23` came in with a TGI of 74.5 µM.

`CC12CC(=O)C3C(C(=O)C1)C32C` (stereo not given) displayed a TGI greater than 100 µM.

As for `O=C1CN2C(c3ccccc3)=NN(c3ccc([N+](=O)[O-])cc3)C2(c2ccccc2)c2cc(Cl)ccc2N1CC1CC1` (stereo not given), the TGI was greater than 100 µM.

The molecule `COc1ccc2cc3c4cc5c(cc4cc[n+]3cc2c1OC)OCO5` gave a TGI greater than 100 µM.

Values taken from PubChem BioAssay (NCI).
